Key:
Assay in all cases: Glasshouse herbicide test, pre- and post-emergence
Assay type in all cases: in vivo
Lolium perenne (LOLPE) = settings: 250 g/h, evaluated after 13 days, five-point scale; for percentage damage caused to the plant, LOLPE POST: post-emergence; for percentage damage caused to the plant, LOLPE PRE: pre-emergence
Description: (§1) Seeds of a variety of test species are sown in standard soil in pots (Lolium perenne (LOLPE), Setaria faberi (SETFA), Alopecurus myosuroides (ALOMY), Echinochloa crus-galli (ECHCG), Avena fatua (AVEFA)). After cultivation for one day (pre-emergence) or after 8 days cultivation (post-emergence) under controlled conditions in a glasshouse (at 24/16° C., day/night; 14 hours light; 65% humidity), the plants are sprayed with an aqueous spray solution derived from the formulation of the technical active ingredient in acetone/water (50:50) solution containing 0.5% Tween 20 (polyoxyethelyene sorbitan monolaurate, CAS RN 9005-64-5). Compounds are applied at 250 g/h. The test plants are then grown in a glasshouse under controlled conditions in a glasshouse (at 24/16° C., day/night; 14 hours light; 65% humidity) and watered twice daily. After 13 days for pre and post-emergence, the test is evaluated for the percentage damage caused to the plant. The biological activities are shown in the following table on a five-point scale (5=80-100%; 4=60-79%; 3=40-59%; 2=20-39%; 1=0-19%).

Avena fatua (AVEFA) = settings: 250 g/h, evaluated after 13 days, five-point scale; for percentage damage caused to the plant, AVEFA POST: post-emergence; for percentage damage caused to the plant, AVEFA PRE: pre-emergence
Description: as §1

Setaria faberi (SETFA) = settings: 250 g/h, evaluated after 13 days, five-point scale; for percentage damage caused to the plant, SETFA POST: post-emergence; for percentage damage caused to the plant, SETFA PRE: pre-emergence
Description: as §1

[1] = tested on: Echinochloa crus-galli (ECHCG); settings: 250 g/h, evaluated after 13 days, five-point scale; for percentage damage caused to the plant, ECHCG POST: post-emergence; for percentage damage caused to the plant, ECHCG PRE: pre-emergence
Description: as §1

[2] = tested on: Alopecurus myosuroides (ALOMY); settings: 250 g/h, evaluated after 13 days, five-point scale; for percentage damage caused to the plant, ALOMY POST: post-emergence; for percentage damage caused to the plant, ALOMY PRE: pre-emergence
Description: as §1

| SMILES | percentage damage caused to the plant, LOLPE POST (Lolium perenne (LOLPE)) | percentage damage caused to the plant, LOLPE PRE (Lolium perenne (LOLPE)) | percentage damage caused to the plant, AVEFA POST (Avena fatua (AVEFA)) | percentage damage caused to the plant, AVEFA PRE (Avena fatua (AVEFA)) | percentage damage caused to the plant, SETFA POST (Setaria faberi (SETFA)) | percentage damage caused to the plant, SETFA PRE (Setaria faberi (SETFA)) | percentage damage caused to the plant, ECHCG POST [1] | percentage damage caused to the plant, ECHCG PRE [1] | percentage damage caused to the plant, ALOMY POST [2] | percentage damage caused to the plant, ALOMY PRE [2] |
| --- | --- | --- | --- | --- | --- | --- | --- | --- | --- | --- |
| CC#Cc1cc(C)c(C2C(=O)CC3(CC2=O)CC(C(=O)NC)C3)c(C)c1 (stereo not shown) [Compound 1.017] | 5 (5=80-100%) | 5 (5=80-100%) | 5 (5=80-100%) | 5 (5=80-100%) | 5 (5=80-100%) | 5 (5=80-100%) | 5 (5=80-100%) | 5 (5=80-100%) | 5 (5=80-100%) | 5 (5=80-100%) |
| CC#Cc1cc(C)c(C2C(=O)CC3(CCC(C(=O)NC)C3)CC2=O)c(C)c1 (stereo not shown) [Compound 1.018] | 5 (5=80-100%) | 5 (5=80-100%) | 5 (5=80-100%) | 5 (5=80-100%) | 5 (5=80-100%) | 5 (5=80-100%) | 5 (5=80-100%) | 5 (5=80-100%) | 5 (5=80-100%) | 5 (5=80-100%) |
| CNC(=O)C1CCC2(CC1)CC(=O)C(c1c(C)cc(-c3ccc(C#N)cn3)cc1C)C(=O)C2 (stereo not shown) [Compound 1.020] | 5 (5=80-100%) | 5 (5=80-100%) | 5 (5=80-100%) | 5 (5=80-100%) | 5 (5=80-100%) | 5 (5=80-100%) | 5 (5=80-100%) | 5 (5=80-100%) | 5 (5=80-100%) | 5 (5=80-100%) |
| Cc1cc(-c2ccc(C#N)cn2)cc(C)c1C1C(=O)CC2(CCC(C(=O)N(C)C)CC2)CC1=O (stereo not shown) [Compound 1.021] | 5 (5=80-100%) | 4 (4=60-79%) | 5 (5=80-100%) | 2 (2=20-39%) | 5 (5=80-100%) | 4 (4=60-79%) | 5 (5=80-100%) | 5 (5=80-100%) | 5 (5=80-100%) | 4 (4=60-79%) |
| CNC(=O)C1CCC2(CC1)CC(=O)C(c1c(C)cc(-c3ccc(Cl)cn3)cc1C)C(=O)C2 (stereo not shown) [Compound 1.022] | 5 (5=80-100%) | 5 (5=80-100%) | 5 (5=80-100%) | 5 (5=80-100%) | 5 (5=80-100%) | 5 (5=80-100%) | 5 (5=80-100%) | 5 (5=80-100%) | 5 (5=80-100%) | 5 (5=80-100%) |
| CNC(=O)C1CCC2(CC1)CC(=O)C(c1c(C)cc(-c3ncc(F)cc3F)cc1C)C(=O)C2 (stereo not shown) [Compound 1.023] | 5 (5=80-100%) | 5 (5=80-100%) | 5 (5=80-100%) | 5 (5=80-100%) | 5 (5=80-100%) | 5 (5=80-100%) | 5 (5=80-100%) | 5 (5=80-100%) | 5 (5=80-100%) | 5 (5=80-100%) |
| CNC(=O)C1CCC2(CC1)CC(=O)C(c1c(C)cc(-c3ccc(F)cn3)cc1C)C(=O)C2 (stereo not shown) [Compound 1.024] | 5 (5=80-100%) | 5 (5=80-100%) | 5 (5=80-100%) | 5 (5=80-100%) | 5 (5=80-100%) | 5 (5=80-100%) | 5 (5=80-100%) | 5 (5=80-100%) | 5 (5=80-100%) | 5 (5=80-100%) |
| CNC(=O)C1CCC2(CC1)CC(=O)C(c1c(C)cc(-c3ccc(F)cc3)cc1C)C(=O)C2 (stereo not shown) [Compound 1.025] | 5 (5=80-100%) | 5 (5=80-100%) | 5 (5=80-100%) | 5 (5=80-100%) | 5 (5=80-100%) | 5 (5=80-100%) | 5 (5=80-100%) | 5 (5=80-100%) | 5 (5=80-100%) | 5 (5=80-100%) |
| CC#Cc1cc(C)c(C2C(=O)CC3(CCC(NC(C)=O)CC3)CC2=O)c(C)c1 (stereo not shown) [Compound 2.001, N-[3-(2,6-dimethyl-4-prop-1-ynyl-phenyl)-2,4-dioxo-spiro[5.5]undecan-9-yl]acetamide] | 5 (5=80-100%) | 5 (5=80-100%) | 5 (5=80-100%) | 5 (5=80-100%) | 5 (5=80-100%) | 5 (5=80-100%) | 5 (5=80-100%) | 5 (5=80-100%) | 5 (5=80-100%) | 5 (5=80-100%) |
| CC#Cc1cc(C)c(C2C(=O)CC3(CCC(NC(C)=O)CC3)CC2=O)c(OC)c1 (stereo not shown) [Compound 2.003] | 5 (5=80-100%) | 5 (5=80-100%) | 5 (5=80-100%) | 5 (5=80-100%) | 5 (5=80-100%) | 5 (5=80-100%) | 5 (5=80-100%) | 5 (5=80-100%) | 5 (5=80-100%) | 5 (5=80-100%) |
| CC#Cc1cc(C)c(C2C(=O)CC3(CCC(NC(=O)C4CC4)CC3)CC2=O)c(C)c1 (stereo not shown) [Compound 2.004] | 5 (5=80-100%) | 5 (5=80-100%) | 5 (5=80-100%) | 5 (5=80-100%) | 5 (5=80-100%) | 5 (5=80-100%) | 5 (5=80-100%) | 5 (5=80-100%) | 5 (5=80-100%) | 5 (5=80-100%) |
| CC#Cc1cc(C)c(C2C(=O)CC3(CCC(NC(=O)C(C)(C)C)CC3)CC2=O)c(C)c1 (stereo not shown) [Compound 2.005] | 5 (5=80-100%) | 5 (5=80-100%) | 5 (5=80-100%) | 5 (5=80-100%) | 5 (5=80-100%) | 5 (5=80-100%) | 5 (5=80-100%) | 5 (5=80-100%) | 5 (5=80-100%) | 5 (5=80-100%) |
| CC#Cc1cc(C)c(C2C(=O)CC3(CCC(NC(=O)c4ccccn4)CC3)CC2=O)c(C)c1 (stereo not shown) [Compound 2.006] | 5 (5=80-100%) | 5 (5=80-100%) | 5 (5=80-100%) | 4 (4=60-79%) | 5 (5=80-100%) | 5 (5=80-100%) | 5 (5=80-100%) | 5 (5=80-100%) | 5 (5=80-100%) | 5 (5=80-100%) |

Reference: US12319640B2, “Cyclic diones as herbicidal compounds” (SYNGENTA CROP PROTECTION AG, priority 2019, dated 2025)
